Laboratory results published in patent publication US20030166922A1, “Novel cephalosporin compounds and process for preparing the same” (priority 2000, published 2003).
Converted amounts (≈) assume the structure as drawn.

What was measured:
Assay in all cases: Minimum Inhibitory Concentration (MIC), agar dilution, standard strains
S. aureus K311 = type: cell-based, Staphylococcus aureus; conditions: Table 2; Mueller-Hinton agar, 37° C., 20 hours
Method: (§1) Minimum Inhibitory Concentration (MIC)
(§2) The effectiveness of the compound according to the present invention was determined by obtaining Minimum Inhibitory Concentration (MIC) of the compounds prepared by the above Examples (I-1 to I-33) and vancomycin, which is the known compound having a potent activity against gram-positive strains, as the control drug against the standard strains. Specifically, Minimum Inhibitory Concentration was obtained by diluting the test material with a double dilution method, dispersing them in Mueller-Hinton agar medium, inoculating each of the test strain having 10^7 cfu (colny forming unit) in an amount of 2:1 to the medium and then incubating them at 37° C. for 20 hours.

S. aureus 77 = type: cell-based, Staphylococcus aureus; conditions: for Minimum Inhibitory Concentration (MIC), S. aureus 77: Table 2, Mueller-Hinton agar, 37° C., 20 hours
Method: as §1, §2

S. epidermidis R005 = type: cell-based; conditions: for Minimum Inhibitory Concentration (MIC), S. epidermidis R005: Table 2, Mueller-Hinton agar, 37° C., 20 hours
Method: as §1, §2

[1] = tested on: Staphylococcus aureus giorgio; type: cell-based; conditions: for Minimum Inhibitory Concentration (MIC), S. aureus giorgio: Table 2, Mueller-Hinton agar, 37° C., 20 hours
Method: as §1, §2

E. faecalis EFS004 = type: cell-based; conditions: Table 2; Mueller-Hinton agar, 37° C., 20 hours
Method: as §1, §2

S. aureus 241 = type: cell-based, Staphylococcus aureus; conditions: Staphylococcus aureus, 241, 20 h, read-out: Minimum Inhibitory Concentration (MIC), S. aureus 241
Method: as §1, §2

E. faecalis L239 = type: cell-based; conditions: Enterococcus faecalis, L239, 20 h, read-out: Minimum Inhibitory Concentration (MIC), E. faecalis L239
Method: as §1, §2

| SMILES | Minimum Inhibitory Concentration (MIC), S. aureus K311 (S. aureus K311) | Minimum Inhibitory Concentration (MIC), S. aureus 77 (S. aureus 77) | Minimum Inhibitory Concentration (MIC), S. epidermidis R005 (S. epidermidis R005) | Minimum Inhibitory Concentration (MIC), S. aureus giorgio [1] | Minimum Inhibitory Concentration (MIC), E. faecalis EFS004 (E. faecalis EFS004) | MIC (S. aureus 77; Staphylococcus aureus, 77, 20 h, read-out: Minimum Inhibitory Concentration (MIC), S. aureus 77) | MIC (S. aureus 241) | MIC (E. faecalis L239) | MIC (S. epidermidis R005; Staphylococcus epidermidis, R005, 20 h, read-out: Minimum Inhibitory Concentration (MIC), S. epidermidis R005) | MIC ([1]; Staphylococcus aureus, 20 h, read-out: Minimum Inhibitory Concentration (MIC), Staphylococcus aureus giorgio) |
| --- | --- | --- | --- | --- | --- | --- | --- | --- | --- | --- |
| Cn1c(N)n[n+]2c(SCSC3=C(C(=O)O)N4C(=O)[C@@H](NC(=O)CSc5cc(Cl)nc(Cl)c5)[C@H]4SC3)nc(N)cc12 [Example I-31, 2,7-diamino-5-[({[(6R,7R)-2-carboxy-7-({2-[(2,6-dichloro-4-pyridinyl)sulf-anyl]acetyl}amino)-8-oxo-5-thia-1-azabicyclo[4.2.0]oct-2-en-3-yl]sulfanyl}methyl)sulfan-yl]-1-methyl-1H-[1,2,4]triazolo[1,5-c]pyrimidin-4-ium] | 0.5 :g/ml | 0.25 :g/ml | 0.25 :g/ml | 0.031 :g/ml | 0.5 :g/ml |  |  |  |  |  |
| O=C(CSc1cc(Cl)nc(Cl)c1)N[C@@H]1C(=O)N2C(C(=O)O)=C(SCSc3nc(O)cc(NCCO)n3)CS[C@H]12 [Example I-32, (6R,7R)-7-({2-[(2,6-dichloro-4-pyridinyl)sulfanyl]acetyl}amino)-3-{[({4-hy-droxy-6-[(2-hydroxyethyl)amino]-2-pyrimidinyl}sulfanyl)methyl]sulfanyl}-8-oxo-5-thia-1-azabicyclo[4. 2.0]oct-2-ene-2-carboxylic acid] | 1 :g/ml | 0.1 :g/ml | 1 :g/ml | 0.13 :g/ml | 1 :g/ml |  |  |  |  |  |
| C[n+]1c(SCSC2=C(C(=O)O)N3C(=O)[C@@H](NC(=O)CSc4cc(Cl)nc(Cl)c4)[C@H]3SC2)cc(N)nc1N [Example I-33, 2,4-diamino-6-[({[(6R,7R)-2-carboxy-7-({2-[(2,6-dichloro-4-pyridinyl)sulf-anyl]acetyl}amino)-8-oxo-5-thia-1-azabicyclo[4.2.0]oct-2-en-3-yl]sulfanyl}methyl)sulfan-yl]-1-methylp yrimidin-1-ium] | 1 :g/ml | 0.25 :g/ml | 0.25 :g/ml | 0.031 :g/ml | 0.5 :g/ml |  |  |  |  |  |
| CN[C@H](CC(C)C)C(=O)N[C@H]1C(=O)N[C@@H](CC(N)=O)C(=O)N[C@H]2C(=O)N[C@H]3C(=O)N[C@H](C(=O)N[C@H](C(=O)O)c4cc(O)cc(O)c4-c4cc3ccc4O)[C@H](O)c3ccc(c(Cl)c3)Oc3cc2cc(c3O[C@@H]2O[C@H](CO)[C@@H](O)[C@H](O)[C@H]2O[C@H]2C[C@](C)(N)[C@H](O)[C@H](C)O2)Oc2ccc(cc2Cl)[C@H]1O [Vancomycin, vancomycin, reference compound] | 2 :g/ml | 1 :g/ml | 1 :g/ml | 1 :g/ml | 2 :g/ml | 1 µg/mL (≈ 0.69 µM) | 2 µg/mL (≈ 1.38 µM) | 2 µg/mL (≈ 1.38 µM) | 1 µg/mL (≈ 0.69 µM) | 1 µg/mL (≈ 0.69 µM) |
